Results as given in PubChem BioAssay (NCI).
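Grown in 96-well plates, cells were treated for 48 hours with each compound at five concentrations. Insufficient inhibition: endpoint recorded as highest concentration tested. TGI: concentration producing complete growth inhibition.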

Tests used:
Assay in all cases: growth of human tumour cells (NCI), 48 h
[1] = tested on: A498 renal
[2] = tested on: OVCAR-4 ovarian
[3] = tested on: SK-OV-3 ovarian
[4] = tested on: CAKI-1 renal
[5] = tested on: CCRF-CEM leukemia
[6] = tested on: U251 CNS
[7] = tested on: OVCAR-5 ovarian
[8] = tested on: DU-145 prostate
[9] = tested on: SNB-19 CNS
[10] = tested on: SN12C renal
[11] = tested on: UACC-257 melanoma
[12] = tested on: LOX IMVI melanoma
[13] = tested on: HCT-15 colon
[14] = tested on: M14 melanoma
[15] = tested on: NCI-H522 lung
[16] = tested on: NCI-H23 lung
[17] = tested on: HT29 colon
[18] = tested on: MDA-MB-231 breast
[19] = tested on: A549 NSCLC
[20] = tested on: K-562 leukemia
[21] = tested on: SF-539 CNS
[22] = tested on: HL-60(TB) leukemia
[23] = tested on: RXF 393 renal
[24] = tested on: HS 578T breast
[25] = tested on: MDA-N
[26] = tested on: NCI-H226 lung
[27] = tested on: BT-549 breast
[28] = tested on: COLO 205 colon
[29] = tested on: SW-620 colon
[30] = tested on: SF-268 CNS
[31] = tested on: NCI-H460 lung
[32] = tested on: UO-31 renal
[33] = tested on: SK-MEL-5 melanoma
[34] = tested on: EKVX NSCLC
[35] = tested on: MALME-3M melanoma
[36] = tested on: SK-MEL-2 melanoma
[37] = tested on: NCI/ADR-RES ovarian
[38] = tested on: HCT-116 colon
[39] = tested on: MDA-MB-435
[40] = tested on: HCC-2998 colon
[41] = tested on: 786-0 renal
[42] = tested on: RPMI-8226 leukemia
[43] = tested on: TK-10 renal
[44] = tested on: SR leukemia
[45] = tested on: SNB-75 CNS
[46] = tested on: OVCAR-8 ovarian
[47] = tested on: T-47D breast
[48] = tested on: MOLT-4 leukemia
[49] = tested on: OVCAR-3 ovarian
[50] = tested on: SK-MEL-28 melanoma
[51] = tested on: UACC-62 melanoma
[52] = tested on: KM12 colon
[53] = tested on: MCF7 breast
[54] = tested on: PC-3 prostate
[55] = tested on: IGROV1 ovarian
[56] = tested on: ACHN renal
[57] = tested on: SF-295 CNS
[58] = tested on: HOP-62 NSCLC
[59] = tested on: HOP-92 NSCLC

`CSC(=Nc1ccccc1)c1c(C)[nH]n(-c2ccccc2)c1=O` gave a TGI [1] of over 100 µM, a TGI [2] of over 100 µM and a TGI [3] of over 100 µM. For the same molecule, the TGI [4] was over 100 µM, the TGI [5] was over 100 µM and the TGI [6] was over 100 µM. The TGI [7] was over 100 µM, the TGI [8] was over 100 µM and the TGI [9] was over 100 µM. For the same molecule, the TGI [10] was over 100 µM, the TGI [11] was over 100 µM and the TGI [12] was over 100 µM. For the same molecule, the TGI [13] was over 100 µM, the TGI [14] was over 100 µM and the TGI [15] was over 100 µM. For the same molecule, the TGI [16] was over 100 µM, the TGI [17] was over 100 µM and the TGI [18] was over 100 µM. For the same molecule, the TGI [19] was over 100 µM, the TGI [20] was over 100 µM and the TGI [21] was over 100 µM. For the same molecule, the TGI [22] was over 100 µM, the TGI [23] was over 100 µM and the TGI [24] was over 100 µM. It also gave a TGI [25] of over 100 µM, a TGI [26] of over 100 µM and a TGI [27] of over 100 µM. It also gave a TGI [28] of over 100 µM, a TGI [29] of over 100 µM and a TGI [30] of over 100 µM. It also gave a TGI [31] of over 100 µM, a TGI [32] of over 100 µM and a TGI [33] of over 100 µM. It also gave a TGI [34] of over 100 µM, a TGI [35] of over 100 µM and a TGI [36] of over 100 µM. The TGI [37] was over 100 µM, the TGI [38] was over 100 µM and the TGI [39] was over 100 µM. The TGI [40] was over 100 µM, the TGI [41] was over 100 µM and the TGI [42] was over 100 µM. The TGI [43] was over 100 µM, the TGI [44] was over 100 µM and the TGI [45] was over 100 µM. The TGI [46] was over 100 µM, the TGI [47] was over 100 µM and the TGI [48] was over 100 µM. For the same molecule, the TGI [49] was over 100 µM, the TGI [50] was over 100 µM and the TGI [51] was over 100 µM. For the same molecule, the TGI [52] was over 100 µM, the TGI [53] was over 100 µM and the TGI [54] was over 100 µM.

`c1ccc(CCCN2C3CCC2CN(CCOC(c2ccccc2)c2ccccc2)C3)cc1` gave a TGI [1] of 21.8 µM, a TGI [2] of 28.4 µM and a TGI [3] of 29.3 µM. It also gave a TGI [4] of 25.7 µM, a TGI [5] of 39.2 µM and a TGI [6] of 20.6 µM. For the same molecule, the TGI [7] was 25.8 µM, the TGI [8] was 32 µM and the TGI [9] was 28.3 µM. For the same molecule, the TGI [10] was 24.8 µM, the TGI [55] was 27 µM and the TGI [11] was 20.8 µM. For the same molecule, the TGI [12] was 24.5 µM, the TGI [13] was 18.1 µM and the TGI [14] was 17.3 µM. It also gave a TGI [15] of 23 µM, a TGI [16] of 23.6 µM and a TGI [17] of 14.8 µM. For the same molecule, the TGI [18] was 21 µM, the TGI [19] was 27.2 µM and the TGI [56] was 26.2 µM. For the same molecule, the TGI [20] was 64 µM, the TGI [21] was 22.4 µM and the TGI [22] was 23.1 µM. For the same molecule, the TGI [24] was 33.7 µM, the TGI [25] was 25.9 µM and the TGI [26] was 25.9 µM. The TGI [27] was 24.9 µM, the TGI [28] was 4.36 µM and the TGI [29] was 44.8 µM. For the same molecule, the TGI [30] was 29.2 µM, the TGI [31] was 25.8 µM and the TGI [32] was 24.8 µM. The TGI [33] was 11.8 µM, the TGI [34] was 19.9 µM and the TGI [35] was 25.2 µM. For the same molecule, the TGI [36] was 22.9 µM, the TGI [37] was 21.3 µM and the TGI [38] was 19.8 µM. It also gave a TGI [39] of 29 µM, a TGI [40] of 18 µM and a TGI [41] of 21.6 µM. The TGI [42] was 7.83 µM, the TGI [43] was 25.6 µM and the TGI [45] was 20.8 µM. The TGI [46] was 23.5 µM, the TGI [47] was 13.9 µM and the TGI [57] was 26.9 µM. The TGI [48] was 25.3 µM, the TGI [49] was 30.4 µM and the TGI [50] was 28.2 µM. The TGI [51] was 25.5 µM, the TGI [52] was 24.2 µM and the TGI [58] was 31.4 µM. The TGI [53] was 25.8 µM, the TGI [54] was 19.4 µM and the TGI [59] was 25.5 µM.

`CN(C)CCNc1c(O)c2c(c(O)c1Cl)C(=O)C=CC2=O` showed a TGI [1] of 9.74 µM, a TGI [2] of 3.29 µM and a TGI [3] of 32.1 µM. For the same molecule, the TGI [5] was 4.72 µM, the TGI [6] was 3.74 µM and the TGI [7] was 3.12 µM. The TGI [8] was 3.36 µM, the TGI [9] was 3.76 µM and the TGI [10] was 3.41 µM. The TGI [55] was 3 µM, the TGI [11] was 3.09 µM and the TGI [13] was 4.29 µM. The TGI [14] was 3.64 µM, the TGI [15] was 3.52 µM and the TGI [16] was 4.25 µM. For the same molecule, the TGI [17] was 3.29 µM, the TGI [18] was 2.72 µM and the TGI [19] was 5.41 µM. It also gave a TGI [56] of 9.76 µM, a TGI [20] of 6.66 µM and a TGI [21] of 3.28 µM. The TGI [22] was 4.33 µM, the TGI [23] was 15.4 µM and the TGI [24] was 7.56 µM. For the same molecule, the TGI [25] was 4.64 µM, the TGI [26] was 50.1 µM and the TGI [27] was 3.17 µM. It also gave a TGI [28] of 3.47 µM, a TGI [29] of 3.91 µM and a TGI [30] of 35.2 µM. For the same molecule, the TGI [31] was 3.63 µM, the TGI [32] was 4.75 µM and the TGI [33] was 2.88 µM. The TGI [34] was 7.69 µM, the TGI [35] was 3.64 µM and the TGI [36] was 3.95 µM. The TGI [37] was 7.08 µM, the TGI [38] was 3.32 µM and the TGI [39] was 3.68 µM. The TGI [40] was 3.59 µM, the TGI [41] was 4.27 µM and the TGI [42] was 8.14 µM. It also gave a TGI [43] of 5.68 µM, a TGI [45] of 6.55 µM and a TGI [46] of 3.4 µM. It also gave a TGI [47] of 4.38 µM, a TGI [57] of 4.05 µM and a TGI [48] of over 100 µM. The TGI [49] was 3.61 µM, the TGI [50] was 4.36 µM and the TGI [51] was 3.74 µM. For the same molecule, the TGI [52] was 3.39 µM, the TGI [58] was 3.65 µM and the TGI [54] was 17.8 µM. For the same molecule, the TGI [59] was 4.25 µM.
